Source: paper PMC12867150, “A fungi-derived cyclic peptide enhances Th9-mediated antitumor immunity by targeting ZAP70 and SREBP1” (The Journal of Clinical Investigation, 2025)
“And” between values parts separate entries of the source, which are not always exact repeats. Identical values can stand only once.

Legend:
[1] = tested on: lipid species of Th9 cells; test: Untargeted lipidomics of Th9 cells (Figure 6B); format: cell-based, mouse; details: day 4; result in words
Method: Comprehensive lipidomic profiling was performed using a liquid chromatography–mass spectrometry (LC-MS) platform. Briefly, samples were first subjected to protein precipitation and impurity removal to ensure metabolite integrity. Lipid species were then extracted using a solvent-based protocol optimized for broad lipid class coverage. LC-MS analysis was conducted in both positive and negative ionization modes to maximize lipid detection breadth. Mass spectrometry data, including MS and MS/MS spectra, were acquired using a high-resolution instrument. Lipid identification and quantification were performed using LipidSearch software (Thermo Fisher Scientific), which generated a lipid expression matrix for downstream statistical and pathway analysis.

SREBP1 = test: CETSA of SREBP1 (Figure 6D-E); format: binding; details: result in words
Method: (§1) Jurkat or 293T cells were washed twice with PBS and resuspended in PBS containing protease and phosphatase inhibitors. Cells were lysed by 3 cycles of liquid nitrogen snap-freezing and thawing at room temperature. […] One aliquot from each group was maintained at room temperature, and the others were heated for 3 minutes at 3 °C increments from 43°C to 64°C. Samples were then analyzed by SDS-PAGE and immunoblotting to assess protein thermal stability and compound binding.

ZAP70 = test: CETSA of ZAP70 in Jurkat cell lysates (Figure 5C-D); format: binding, Jurkat cells; details: result in words
Method: as §1

endogenous CD4+ T cells = test: Cytokines and granzyme B/perforin in endogenous CD4+ T cells (Figure 3I, S4G-I); format: in vivo, mouse; parameters: TNF-α expression / IFN-γ expression / Expression of IFN-g of endogenous CD4⁺ T cells in tumor / Expression of TNF-α of endogenous CD4⁺ T cells in tumor: unit not given here; details: for Expression of IFN-g of endogenous CD4⁺ T cells in tumor: Supplemental Figure 4G; for Expression of TNF-α of endogenous CD4⁺ T cells in tumor: Supplemental Figure 4H; for Expression of GzmB+Perforin+ of endogenous CD4⁺ T cells in tumor: Supplemental Figure 4I
Method: C57BL/6 mice were subcutaneously injected with 5 × 10^5 B16-OVA melanoma cells. Five days after tumor implantation, mice received an intravenous infusion of 2 × 10^6 in vitro–differentiated Th9 cells (cultured for 5 days), which were derived from OT-II CD45.1 donor mice, accompanied by 4 × 10^5 OVA peptide–pulsed DCs via the tail vein. To enhance T cell engraftment and facilitate lymphodepletion, a single intraperitoneal injection of cyclophosphamide (200 mg/kg, Sigma, catalog C0768) was administered 1 day prior to T cell transfer. Mice were euthanized at designated time points for the collection and analysis of spleens, tumor-draining lymph nodes, and tumor tissues.
Details regarding staining panels (human and mouse), reagents (including clones and catalog numbers), acquisition settings, compensation/controls, and analysis procedures are provided in Supplemental Methods.
BioLegend, Cat. No. 422301 or Mouse TruStain FcX™, BioLegend, Cat. No. 101319) for 10 minutes at 4°C. For surface marker detection, cells were stained with fluorochrome-conjugated monoclonal antibodies in 96-well V-bottom plates and incubated on ice for 30 minutes. After staining, cells were washed twice and resuspended in FACS buffer for analysis.
Prior to intracellular cytokine staining, cells were restimulated for 4 hours with PMA (Absin, Cat. No. abs9107), ionomycin (Sigma-Aldrich, Cat. No. I0634), and brefeldin A (MedChemExpress, Cat. No. HY-16592). For intracellular cytokine staining, cells were first surface-stained as described above, then fixed and permeabilized using the BD Cytofix/Cytoperm™ kit (BD Biosciences, Cat. No. 554714) according to the manufacturer ’s protocol. Intracellular proteins were stained with directly conjugated antibodies targeting IL-9, IL-17a, IL-4, IFN-γ, TNF-α, FOXP3, p-ZAP70, Perforin, and […]
Antibodies used for mouse samples included those against IL-9 (PE, clone RM9A4, Biolegend, Cat. No. 514104), IFN-γ (PE, clone XMG1.2, Biolegend, Cat. No.
Cat. No. 103138), CD4 (APC/Cy7, clone E-AB-F1353UJ, Elabscience, Cat. No.
AF18028), CD8α (PerCP/Cy5.5, clone E-AB-F1104UJ, Elabscience, Cat. No. […]
clone E-AB-F1187UH, Elabscience, Cat. No. AF19854), TNF-α (BV421, clone MP6-XT22, Biolegend, Cat. No. 506328), FOXP3 (PE, clone FJK-16s, eBioscience, Cat. No.
Perforin (APC, clone S16009A, Biolegend, Cat. No. 154303) and Granzyme B (APC, clone QA16A02, Biolegend, Cat. No. 372203). For human samples, antibodies against CD4 (PerCP/Cy5.5, clone RPA-T4, Biolegend, Cat. No. 300530; APC/Cy7, clone OKT4, Biolegend, Cat. No. 317418), CD19 (APC/Cy7, clone SJ25C1, Biolegend, Cat.
No. 363009), IFN-γ (PE, clone 4S.B3, Biolegend, Cat. No. 502509), IL-9 (PE, clone

[2] = endogenous CD4+, spleen, individual mice, n = 4

Substance: anteiso-C15 Leu7 surfactin [EpA]
- lipid species [1]: global reduction in lipid species
- thermal stability of SREBP1 (SREBP1): enhanced thermal stability of SREBP1
- thermal stability of ZAP70 (ZAP70): increased thermal stability of ZAP70
- GzmB+ PRF1+ gate number (endogenous CD4+ T cells; CD4+ T cells in tumors, representative flow plot, Figure S4I): 5.26
- GzmB and Perforin expression (endogenous CD4+ T cells; [2]): 8.38 and 8.7 and 5.23 and 4.52
- IFN-γ expression (endogenous CD4+ T cells; [2]): 10.3 and 15 and 14.6 and 10.5
- TNF-α expression (endogenous CD4+ T cells; [2]): 13.3 and 10.2 and 13.4 and 20.6
- TNF-α expression of CD4+ T cells (endogenous CD4+ T cells; spleen, result in words): remained unchanged
- granzyme B+ perforin+ CD4+ T cells (endogenous CD4+ T cells; spleen, result in words): pronounced increase
- Expression of IFN-g of endogenous CD4⁺ T cells in tumor (endogenous CD4+ T cells; replicate 1): 193
- Expression of IFN-g of endogenous CD4⁺ T cells in tumor (endogenous CD4+ T cells; replicate 2): 141
- Expression of IFN-g of endogenous CD4⁺ T cells in tumor (endogenous CD4+ T cells; replicate 3): 342
- Expression of IFN-g of endogenous CD4⁺ T cells in tumor (endogenous CD4+ T cells; replicate 4): 291
- Expression of TNF-α of endogenous CD4⁺ T cells in tumor (endogenous CD4+ T cells; replicate 1): 483
- Expression of TNF-α of endogenous CD4⁺ T cells in tumor (endogenous CD4+ T cells; replicate 2): 294
- Expression of TNF-α of endogenous CD4⁺ T cells in tumor (endogenous CD4+ T cells; replicate 3): 665
- Expression of TNF-α of endogenous CD4⁺ T cells in tumor (endogenous CD4+ T cells; replicate 4): 542
- Expression of GzmB+Perforin+ of endogenous CD4⁺ T cells in tumor (endogenous CD4+ T cells; replicate 1): 5.25
- Expression of GzmB+Perforin+ of endogenous CD4⁺ T cells in tumor (endogenous CD4+ T cells; replicate 2): 5.18
- Expression of GzmB+Perforin+ of endogenous CD4⁺ T cells in tumor (endogenous CD4+ T cells; replicate 3): 5.26
- Expression of GzmB+Perforin+ of endogenous CD4⁺ T cells in tumor (endogenous CD4+ T cells; replicate 4): 9.14
- TNF-α expression of CD4+ T cells (endogenous CD4+ T cells; tumors, result in words): upregulated TNF-α expression
